Laboratory results: article PMC8761492 (Life Science Alliance, 2022)
≈ marks a conversion by molar mass, not a printed value. Starred links: 1 amine or outer side, 2 acyl side, 3 side chain; linkers in the order of their positions; H or OH if unused. Positions of bridges follow the written chain, without caps; N, C: chain ends. Non-standard residues stand in square brackets, D forms with d. Residues, ends and D or L forms follow the SMILES beside them. *: point of attachment. X1 = CC[C@H](C)[C@@H](N[*:1])[C@@H](O)CC(=O)O[C@H](C(=O)[C@H](C)C(=O)[*:2])C(C)C; NMeY = CN[C@@H](Cc1ccc(O)cc1)C(=O)O; dNMeL = CN[C@H](CC(C)C)C(=O)O; Pyruvoyl = CC(=O)C(=O)*

Experiments:
[1] = Tissue distribution of total radioactivity after single IV bolus of [14C]plitidepsin; type: in vivo, Sprague–Dawley rats; conditions: rat, 0.2 mg/kg i.v. bolus
Description: An in vivo distribution study was carried out in rats. PM140064 (14C1-Plitidepsin) was supplied by PharmaMar at a radiochemical purity of 95% or greater, with no single impurity 3% or greater. The study was conducted at Aptuit Srl ([54]).
24 male and 24 female Sprague–Dawley rats each received a single IV bolus administration of [14C] Plitidepsin at a target dose of 0.2 mg/kg. After administration, three animals per time-point (0.25, 1, 2, 4, 8, 24, 48, and 72 h post-dose) were exsanguinated from the abdominal aorta and blood retained. Actual times of bleeding were recorded. In addition to blood, the following tissues were collected: brain, eyeballs, heart, liver, lung, skeletal muscle (quadriceps), fat, kidneys, stomach, skin, small intestine, spleen, thyroid, lymph nodes, and testes or ovaries. At the end of the collection period animals were euthanized by CO2 asphyxiation and the carcasses were discarded. Additional animals were bled to obtain control blood/plasma and tissues.

[2] = APLICOV-PC: safety, adverse events and laboratory abnormalities; type: in vivo, human
Description: The plitidepsin clinical proof-of-concept study (APLICOV-PC, APL-D-002-20; EudraCT #2020-001993-31; NCT04382066) was a multicenter, randomized, parallel, open-label, proof-of-concept clinical trial, exploring three dose levels of plitidepsin (1.5, 2.0, and 2.5 mg/day, flat doses) for 3 consecutive days, as a 90-min i.v. infusion, in adult patients with COVID-19 who required hospitalization. The study was conducted in 10 hospital centers in Spain between 12 May 2020 and 26 November 2020. Presented data reflect all analyses completed by the cut-off date of 10 December 2020. The research was performed in accordance with good clinical practice guidelines and adhered to the tenets of the Declaration of Helsinki. The study protocol is available in Supplemental Data 1. Supplemental Data 2 summarizes the protocol amendments as well as post hoc analyses that were performed.
Adult (aged ≥18 yr) hospitalized patients with a positive SARS-CoV-2 infection confirmed by real-time RT-PCR testing of a nasopharyngeal exudate or the lower respiratory tract were eligible for inclusion in this study. Despite the eligibility of patients with samples from the lower respiratory tract, all patients reported here had only nasopharyngeal swab samples. Included patients must have had the onset of SARS-CoV-2 infection symptoms no more than 10 d before initiating the study. […] Women and men with partners of childbearing potential agreed to take effective contraception while on study and for 6 mo after the last dose of plitidepsin. All included patients provided written informed consent before the initiation of the study.
Key exclusion criteria included participation in another COVID-19–related clinical trial; receiving antivirals, chloroquine or derivatives, IL-6 receptor inhibitors, or immunomodulatory drugs for treatment of COVID-19; or requiring mechanical ventilation support at enrollment. Patients were also excluded for evidence of multi-organ failure, clinically relevant heart disease, clinically relevant arrhythmia or history of QTc interval prolongation, or neuropathy ≥ grade 2. Full exclusion criteria can be found in Supplemental Data 1.
Randomization was done through registration in the study’s electronic case report form. The system assigned a unique randomization number for each patient. Patients were enrolled sequentially and allocated by block randomization into the three dose groups (1.5, 2.0, and 2.5 mg plitidepsin) up to an initial sample size of nine patients per group. To ensure safety, the first three patients in the 2.0 mg group could not be enrolled until the first three patients in the 1.5 mg cohort had successfully completed Day 15 assessments (12 d after completing plitidepsin dosing); similarly, the first three patients in the 2.5 mg cohort could be not enrolled until the first three patients in the 2.0 mg cohort had successfully completed Day 15 assessments (12 d after completing plitidepsin dosing). Finally, three patients had to be treated in the 2.5 mg cohort to complete the accrual of nine patients per cohort. When multiple dose levels were open for enrollment, patients were randomized 1:1 or 1:1:1 as appropriate (Fig 4). After an interim safety analysis, a protocol amendment was approved to subsequently expand the accrual up to 45 patients (six additional patients per dose group).
Enrolled patients received plitidepsin administered as an i.v. infusion over 90 min on days 1, 2, and 3 at dose levels of 1.5, 2.0, and 2.5 mg. A single batch (Lot 16D19) was administered to all patients. All patients also received, 20–30 min before the infusion of plitidepsin (i.e., on days 1–3), a premedication regimen consisting in: diphenhydramine 25 mg i.v., ranitidine 50 mg i.v., and dexamethasone 8 mg orally. […]

SARS-CoV-2 = tested on: SARS-CoV-2; parameters: method as in PMID 33495306; conditions: in vivo; cited from earlier work
CYP3A4 = tested on: CYP3A4; parameters: method as in study protocol; conditions: in vitro studies; ref study protocol; cited from earlier work
[3] = Protocol estimate of target concentrations from the HCoV-229E experiment; conditions: bovine, cell culture medium with 10% bovine serum
HCoV-229E = assay: as above; conditions: from IC50 0.555 µg/l assuming a Hill slope of 1
[4] = Post-amendment (n = 36), Grade 1
[5] = Post-amendment (n = 36), Grade 2
[6] = after the premedication amendment
[7] = before the premedication amendment

With `CC[C@H](C)[C@H]1NC(=O)[C@@H](NC(=O)[C@@H](CC(C)C)N(C)C(=O)[C@@H]2CCCN2C(=O)C(C)=O)[C@@H](C)OC(=O)[C@H](Cc2ccc(OC)cc2)N(C)C(=O)[C@@H]2CCCN2C(=O)[C@H](CC(C)C)NC(=O)[C@@H](C)C(=O)[C@H](C(C)C)OC(=O)C[C@@H]1O` [Plitidepsin] (Pyruvoyl-P[dNMeL]T[X1]LP[NMeY](Me); ester 3-C) the “lung-blood (LBR) AUC ratio” value [1] was “around 8 fold”, the “prevalence of grade 3–4 AEs” value ([2]; 1.5 mg cohort) was 33.3% and the “prevalence of grade 3–4 AEs” value ([2]; 2.0 mg cohort) was 20.0%. The “prevalence of grade 3–4 AEs” value ([2]; 2.5 mg cohort) was 40.0%, the “patients with Grade 1 increase in CPK” value ([2]; 3 of 37 with normal baseline values) was 8.1% and the “patients whose platelet counts normalized” value ([2]; 5 of 12 with Grade 1 thrombocytopenia at entry) was 41.7%. For the same molecule, the patients with hyperglycemia ([2]; 8 of 45, none considered related to plitidepsin) was 18%, the “patients with elevation of AST” value ([2]; 13 of 44, regardless of causality) was 30% and the “patients with elevation of ALT” value ([2]; 29 of 44, regardless of causality) was 66%. The “hypersensitivity reactions after changes to premedication” value ([2]; 36 patients, 108 infusions) was “No new hypersensitivity reactions”, the “serious adverse event considered related to the study drug” value ([2]; Grade 3 hypersensitivity reaction, one event) was 2.2 % subjects and the Abdominal pain [2, 4] was 2 (5.6%) N (%). The Anorexia [2, 4] was 1 (2.8%) N (%), the Asthenia [2, 4] was 1 (2.8%) N (%) and the Chest discomfort [2, 4] was 1 (2.8%) N (%). For the same molecule, the Diarrhea [2, 4] was 1 (2.8%) N (%), the Dizziness [2, 4] was 2 (5.6%) N (%) and the Dysgeusia [2, 4] was 2 (5.6%) N (%). The Dyspepsia [2, 4] was 2 (5.6%) N (%), the Dysthermia [2, 4] was 1 (2.8%) N (%) and the Nausea [2, 4] was 11 (30.6%) N (%). The Temperature regulation disorder [2, 4] was 1 (2.8%) N (%), the Vomiting [2, 4] was 3 (8.3%) N (%) and the Amylase increased [2, 5] was 1 (2.8%) N (%). The Asthenia [2, 5] was 1 (2.8%) N (%), the Decreased appetite [2, 5] was 1 (2.8%) N (%) and the Diarrhea [2, 5] was 1 (2.8%) N (%). The Lipase increased [2, 5] was 1 (2.8%) N (%), the Nausea [2, 5] was 3 (8.3%) N (%) and the Vomiting [2, 5] was 2 (5.6%) N (%). The Diarrhea ([2]; Post-amendment (n = 36), Grade 3) was 1 (2.8%) N (%), the Nausea ([2]; Pre-amendment (n = 9), Grade 1) was 3 (33.3%) N (%) and the Vomiting ([2]; Pre-amendment (n = 9), Grade 1) was 2 (22.2%) N (%). For the same molecule, the Nausea ([2]; Pre-amendment (n = 9), Grade 2) was 2 (22.2%) N (%), the Anaphylactic reaction ([2]; Pre-amendment (n = 9), Grade 3) was 1 (11.1%) N (%) and the “proportion of patients with nausea” value [2, 6] was 38.9%. The “proportion of patients with vomiting” value [2, 6] was 13.9%, the “Grade 4 AEs” value ([2]; all doses) was “No Grade 4 AEs were reported” and the hemotoxicity ([2]; all doses) was “did not show signs of clinically relevant hemotoxicity”. For the same molecule, the “patients with treatment related adverse events” value ([2]; all doses, 25 patients) was 55.5%, the “patients with one or more adverse events” value ([2]; all doses, 44 of 45) was 97.8% and the treatment-related abdominal pain ([2]; all doses, 45 treated patients) was 4.4%. The treatment-related diarrhea ([2]; all doses, 45 treated patients) was 6.7%, the treatment-related dizziness ([2]; all doses, 45 treated patients) was 4.4% and the treatment-related dysgeusia ([2]; all doses, 45 treated patients) was 4.4%. For the same molecule, the treatment-related nausea ([2]; all doses, 45 treated patients) was 42.2%, the treatment-related vomiting ([2]; all doses, 45 treated patients) was 15.6% and the “patients with at least one Grade ≥ 3 AE regardless of causality” value ([2]; all doses, NCI-CTCAE v5) was 31%. For the same molecule, the “number of Grade 3 AEs attributed to plitidepsin” value ([2]; anaphylactic reaction at 1.5 mg/day and diarrhea at 2.5 mg/day) was “Two”, the “proportion of patients with nausea” value [2, 7] was 55.6% and the “proportion of patients with vomiting” value [2, 7] was 22.2%. The “patients whose CPK values decreased on study” value ([2]; four of five with Grade 1–2 elevation at entry) was 80%, the “patients who died (COVID-19-related)” value ([2]; three of 45 treated patients, days 22, 30 and 57) was 6.7% and the “viral load in lungs” value (SARS-CoV-2) was “significant reduction in the viral load in lungs”. The “major enzyme involved in plitidepsin metabolism” value (CYP3A4) was “CYP3A4”, the fraction unbound [3] was greater than 0.96 and the IC90 estimated (HCoV-229E) was 4.995 ng/mL (≈ 4.5 nM).
